# Reference: ChEMBL document CHEMBL1201862, “PubChem BioAssay data set” (2004)
# pIC50: −log10 of the molar value. Activity calls are given as the source filed them.
# Assays:
# [1] = molecular target: Cyclin-dependent kinase 5/CDK5 activator 1 (Homo sapiens, UniProt Q00535); experiment: blockade of human CDK5 activity – biochemical, cherry-picked samples, set 2, dose response (AID 504545)
# [2] = molecular target: T1, Kappa-type opioid receptor (Homo sapiens, UniProt P41145); type: functional
# [3] = molecular target: T1, Kappa-type opioid receptor; type: functional; remark: listed apart in the source
# Beta-galactosidase = Beta-galactosidase (Escherichia coli, UniProt Q8VNN2); type: functional
# [4] = Luminescence Cell-Based Dose Retest to Confirm Inhibitors of Cancer Stem Cells. [Related pubchem assays (depositor defined):AID2717, AID2721]; type: functional; settings: Homo sapiens
# [5] = molecular target: Neurotensin receptor type 1 (Homo sapiens, UniProt P30989); type: functional;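 further: Image-based confirmatory dose-response assay measuring agonist activity at NTR1; NTR1-expressing U2OS osteosarcoma cells imaged for beta-arrestin GFP spot formation; agonist potency where compounds increase beta-arrestin recruitment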
# [6] = luciferase reporter signal suppression in cells – H4 neuroglioma cells, luminescence, dose response (AID 1990); type: functional, cell-based
# [7] = HEK-293T cell viability reduction – luminescence, B-cell screen hits, cytotoxicity control for BCR NF-kB inhibitor project, dose response (AID 489021); type: functional, cell-based;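 further: HEK-293T cells carrying an NF-kB luciferase reporter; cells exposed to compound for about 14 hours before viability readout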
# [8] = Luminescence Cell-Based Dose Response HTS to Identify Inhibitors of 5'UTR Stem-Loop Driven Prion Protein mRNA Translation in H4 Neuroglioblastoma Cells. [Related pubchem assays: 1827 (Project Summary), 1813 (Primary HTS)]; type: functional
# [9] = molecular target: T2, Heat shock factor protein 1 (Mus musculus, UniProt P38532); experiment: enhancement of HSF1-driven luciferase signal – cell-based, NIH3T3, luminescence, dose retest, confirmation (AID 435004); type: functional;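 further: stress induced by proteasome inhibitor MG132 added 30 min after compound; luciferase reporter driven by HSF1 response element in NIH3T3 cells; actives raise luminescence as potentiators of the MG132 stress response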
# T2 sequence (P38532 whole entry): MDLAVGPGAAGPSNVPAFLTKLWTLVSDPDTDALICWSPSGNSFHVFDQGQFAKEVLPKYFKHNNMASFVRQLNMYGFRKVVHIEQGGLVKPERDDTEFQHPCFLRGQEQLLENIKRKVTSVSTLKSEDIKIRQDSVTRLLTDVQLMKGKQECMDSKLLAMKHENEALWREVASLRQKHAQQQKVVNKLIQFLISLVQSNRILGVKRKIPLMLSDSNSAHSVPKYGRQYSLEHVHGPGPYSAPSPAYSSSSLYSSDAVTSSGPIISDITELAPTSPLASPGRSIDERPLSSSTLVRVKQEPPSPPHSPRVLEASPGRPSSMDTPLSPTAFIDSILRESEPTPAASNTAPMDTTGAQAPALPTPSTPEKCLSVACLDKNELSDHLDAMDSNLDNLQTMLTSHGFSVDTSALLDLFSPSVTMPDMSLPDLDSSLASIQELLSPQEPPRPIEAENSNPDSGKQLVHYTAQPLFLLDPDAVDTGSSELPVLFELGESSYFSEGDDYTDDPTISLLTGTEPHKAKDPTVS
# [10] = Luminescence Cell-Based Dose Response HTS to Identify Activators of Luciferase Translation or Activity in H4-C Neuroglioblastoma Cells. [Related pubchem assays: 1829 (Project Summary), 1814 (Primary HTS)]; type: functional
# [11] = Luminescence Cell-Based Dose Response HTS to Identify Activators of 5'UTR Stem-Loop Driven Prion Protein mRNA Translation in H4-C Neuroglioblastoma Cells. [Related pubchem assays: 1829 (Project Summary), 1814 (Primary HTS)]; type: functional
# [12] = Luminescence Cell-Based Dose Confirmation HTS to Identify Activators of 5'UTR Stem-Loop Driven Alpha-Synuclein mRNA Translation in H4 Neuroglioblastoma Cells. [Related pubchem assays: 1829 (Project Summary), 1814 (Primary HTS)]; type: functional
# [13] = Luminescence Cell-Based Dose Retest to Confirm Activators of 5'UTR Stem-Loop Driven Alpha-Synuclein mRNA Translation in H4 Neuroglioblastoma Cells. [Related pubchem assays (depositor defined):AID1813, AID1829]; type: functional
# [14] = Luminescence Cell-Based Dose Response HTS to Identify Activators of Luciferase Translation or Activity in H4 […] Cells. [Related pubchem assays: 1829 (Project Summary), 1814 (Primary HTS)]; type: functional
# H4 = experiment: Luminescence Cell-Based Dose Response HTS to Identify Activators of 5'UTR Stem-Loop Driven Prion Protein mRNA Translation in H4 Neuroglioblastoma Cells. [Related pubchem assays: 1829 (Project Summary), 1814 (Primary HTS)]; type: functional; settings: Homo sapiens
# [15] = THP-1 cell cytotoxicity, dose response, cytotoxicity control for non-replicating M. tuberculosis project (AID 489025); type: functional
# [16] = molecular target: Acyl-homoserine lactone acylase PvdQ (Pseudomonas aeruginosa (strain LESB58), UniProt Q9I194); experiment: PvdQ acylase enzyme activity blockers – biochemical, fluorescence, plate reader and imaging, cherry-picks, dose response (AID 493231)
# [17] = molecular target: T3, Polyadenylate-binding protein 1 (Homo sapiens, UniProt P11940); experiment: MLLE domain peptide-binding blockers, IC50 – biochemical, fluorescence polarization, FITC-PAM2 peptide, dose response (AID 602259); type: functional; settings: read-out: IC50_Mean
# [18] = molecular target: T3, Polyadenylate-binding protein 1; experiment: MLLE binding blockers, Cy5 peptide tracer – biochemical, fluorescence polarization, Cy5-PAM2 peptide, secondary, miRNA deadenylation inhibitor project, dose response (AID 602260); type: functional; settings: read-out: IC50_Mean
# cells = type: functional
# Procathepsin L = Procathepsin L (Homo sapiens, UniProt P07711)
# Aspartyl aminopeptidase = molecular target: T4, Aspartyl aminopeptidase (Plasmodium falciparum 3D7, UniProt Q8I2J3)
# T4 sequence (Q8I2J3 whole entry): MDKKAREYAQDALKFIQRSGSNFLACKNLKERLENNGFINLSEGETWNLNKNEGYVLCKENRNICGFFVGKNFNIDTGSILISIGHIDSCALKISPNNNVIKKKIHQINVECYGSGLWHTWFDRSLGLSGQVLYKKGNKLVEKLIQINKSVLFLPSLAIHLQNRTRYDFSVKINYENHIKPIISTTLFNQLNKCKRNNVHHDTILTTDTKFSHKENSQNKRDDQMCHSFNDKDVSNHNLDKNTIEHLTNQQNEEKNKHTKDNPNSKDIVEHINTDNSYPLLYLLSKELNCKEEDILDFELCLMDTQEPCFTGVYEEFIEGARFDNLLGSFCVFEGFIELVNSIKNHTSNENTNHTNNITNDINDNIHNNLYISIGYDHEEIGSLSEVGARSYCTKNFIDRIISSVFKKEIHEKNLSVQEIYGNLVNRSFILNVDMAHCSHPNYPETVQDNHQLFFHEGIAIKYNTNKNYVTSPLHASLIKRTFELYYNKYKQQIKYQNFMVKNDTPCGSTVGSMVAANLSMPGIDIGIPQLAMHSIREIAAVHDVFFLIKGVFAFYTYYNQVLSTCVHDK
# Cytochrome P450 2C9 = Cytochrome P450 2C9 (Homo sapiens, UniProt P11712); settings: Potency
# Cytochrome P450 2D6 = Cytochrome P450 2D6 (Homo sapiens, UniProt P10635); experiment: qHTS Assay for Inhibitors and Substrates of Cytochrome P450 2D6. [Related pubchem assays: 410 ]; type: ADME; settings: read-out: Potency
# [19] = microbe, parasite or virus in culture; type: functional; settings: Mycobacterium tuberculosis
# [20] = molecular target: T5, Microphthalmia-associated transcription factor (Homo sapiens, UniProt O75030); experiment: reducers of TRPM1 reporter luminescence, concentration series – cell-based, SK-MEL-5, cherry-picked, set 3, MITF inhibitor project, dose response (AID 493073); type: functional;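 further: SK-MEL-5 melanoma cells with luciferase driven by the MITF target TRPM1 promoter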
# T5 sequence (O75030 whole entry): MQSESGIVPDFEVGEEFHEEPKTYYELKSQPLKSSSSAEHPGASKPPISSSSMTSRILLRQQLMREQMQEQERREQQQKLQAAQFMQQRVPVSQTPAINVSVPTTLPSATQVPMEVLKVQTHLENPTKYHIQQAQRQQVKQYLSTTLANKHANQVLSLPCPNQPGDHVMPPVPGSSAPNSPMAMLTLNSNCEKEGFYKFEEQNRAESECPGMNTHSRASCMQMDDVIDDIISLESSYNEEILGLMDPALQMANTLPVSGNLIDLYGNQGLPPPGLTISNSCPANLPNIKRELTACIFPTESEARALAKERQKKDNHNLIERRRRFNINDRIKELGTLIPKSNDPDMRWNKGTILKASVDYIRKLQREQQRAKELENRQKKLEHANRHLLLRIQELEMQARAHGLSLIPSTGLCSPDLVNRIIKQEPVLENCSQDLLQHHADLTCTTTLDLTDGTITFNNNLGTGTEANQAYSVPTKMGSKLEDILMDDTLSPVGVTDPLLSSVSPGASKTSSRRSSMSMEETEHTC
# HeLa = experiment: viability loss in HeLa cells – cell-based, 24 h, cherry-picked samples, cytotoxicity control, dose response (AID 504726); type: functional; settings: Homo sapiens;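 further: potency for cytotoxicity as loss of luminescence signal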
# Caspase-6 = molecular target: T6, Caspase-6 (Homo sapiens, UniProt P55212); experiment: inhibition of CASP6 peptide cleavage – biochemical, VEID-R110 fluorescence, cherry-pick, dose response (AID 720632)
# T6 sequence (P55212 whole entry): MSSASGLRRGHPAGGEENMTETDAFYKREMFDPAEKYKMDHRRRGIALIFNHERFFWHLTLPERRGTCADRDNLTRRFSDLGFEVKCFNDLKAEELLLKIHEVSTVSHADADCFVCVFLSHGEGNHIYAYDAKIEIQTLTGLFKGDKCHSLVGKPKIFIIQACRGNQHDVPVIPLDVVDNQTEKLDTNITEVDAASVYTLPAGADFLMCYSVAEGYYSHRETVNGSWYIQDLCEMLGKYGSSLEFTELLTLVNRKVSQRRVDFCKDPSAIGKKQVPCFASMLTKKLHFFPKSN
# [21] = molecular target: T7, Rac GTPase-activating protein 1 (Homo sapiens, UniProt Q9H0H5); experiment: blockers of MgcRacGAP-driven Rac1 GTP hydrolysis – biochemical, ADP Hunter fluorescence, primary and confirmatory, confirmation (AID 624330); type: functional
# T7 sequence (Q9H0H5 whole entry): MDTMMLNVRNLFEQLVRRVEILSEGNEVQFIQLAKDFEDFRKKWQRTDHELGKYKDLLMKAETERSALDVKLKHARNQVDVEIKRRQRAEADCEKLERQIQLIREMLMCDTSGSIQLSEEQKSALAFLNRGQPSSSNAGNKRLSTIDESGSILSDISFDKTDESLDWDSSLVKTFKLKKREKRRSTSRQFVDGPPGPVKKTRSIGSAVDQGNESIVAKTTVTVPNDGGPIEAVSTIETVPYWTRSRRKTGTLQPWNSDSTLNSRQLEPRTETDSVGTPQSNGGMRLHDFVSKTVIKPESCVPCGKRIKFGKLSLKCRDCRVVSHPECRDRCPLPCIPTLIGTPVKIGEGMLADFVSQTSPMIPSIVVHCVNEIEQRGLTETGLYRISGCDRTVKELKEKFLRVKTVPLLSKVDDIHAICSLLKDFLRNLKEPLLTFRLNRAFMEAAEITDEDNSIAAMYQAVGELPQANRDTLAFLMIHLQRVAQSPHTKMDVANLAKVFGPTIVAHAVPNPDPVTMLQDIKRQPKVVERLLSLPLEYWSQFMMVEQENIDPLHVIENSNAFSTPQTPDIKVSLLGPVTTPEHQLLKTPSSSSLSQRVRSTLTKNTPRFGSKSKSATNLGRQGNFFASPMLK
# T3 sequence (P11940 whole entry, the tested form may be a part): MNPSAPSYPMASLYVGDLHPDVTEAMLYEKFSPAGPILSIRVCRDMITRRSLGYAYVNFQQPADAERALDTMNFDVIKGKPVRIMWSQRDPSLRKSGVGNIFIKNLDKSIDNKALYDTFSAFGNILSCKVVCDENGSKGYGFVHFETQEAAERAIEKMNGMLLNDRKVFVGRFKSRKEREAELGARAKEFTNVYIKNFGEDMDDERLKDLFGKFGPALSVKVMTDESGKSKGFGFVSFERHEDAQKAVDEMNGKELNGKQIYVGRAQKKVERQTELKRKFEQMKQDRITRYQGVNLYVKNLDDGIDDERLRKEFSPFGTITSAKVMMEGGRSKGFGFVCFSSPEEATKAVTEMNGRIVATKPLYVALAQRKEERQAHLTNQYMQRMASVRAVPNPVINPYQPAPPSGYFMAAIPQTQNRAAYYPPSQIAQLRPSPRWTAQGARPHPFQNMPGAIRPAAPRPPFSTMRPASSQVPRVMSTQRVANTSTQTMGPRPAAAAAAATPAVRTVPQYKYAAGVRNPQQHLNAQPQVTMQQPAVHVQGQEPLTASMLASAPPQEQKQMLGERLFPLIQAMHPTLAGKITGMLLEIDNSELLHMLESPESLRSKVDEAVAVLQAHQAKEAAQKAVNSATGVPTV
# Sequence of Acyl-homoserine lactone acylase PvdQ (Q9I194 24-193 limits assumed): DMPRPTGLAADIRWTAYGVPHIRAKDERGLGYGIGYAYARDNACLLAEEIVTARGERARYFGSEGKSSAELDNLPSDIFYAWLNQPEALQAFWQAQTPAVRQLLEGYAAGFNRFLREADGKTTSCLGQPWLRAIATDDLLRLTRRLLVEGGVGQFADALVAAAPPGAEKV
# Sequence of Acyl-homoserine lactone acylase PvdQ (Q9I194 217-762 limits assumed): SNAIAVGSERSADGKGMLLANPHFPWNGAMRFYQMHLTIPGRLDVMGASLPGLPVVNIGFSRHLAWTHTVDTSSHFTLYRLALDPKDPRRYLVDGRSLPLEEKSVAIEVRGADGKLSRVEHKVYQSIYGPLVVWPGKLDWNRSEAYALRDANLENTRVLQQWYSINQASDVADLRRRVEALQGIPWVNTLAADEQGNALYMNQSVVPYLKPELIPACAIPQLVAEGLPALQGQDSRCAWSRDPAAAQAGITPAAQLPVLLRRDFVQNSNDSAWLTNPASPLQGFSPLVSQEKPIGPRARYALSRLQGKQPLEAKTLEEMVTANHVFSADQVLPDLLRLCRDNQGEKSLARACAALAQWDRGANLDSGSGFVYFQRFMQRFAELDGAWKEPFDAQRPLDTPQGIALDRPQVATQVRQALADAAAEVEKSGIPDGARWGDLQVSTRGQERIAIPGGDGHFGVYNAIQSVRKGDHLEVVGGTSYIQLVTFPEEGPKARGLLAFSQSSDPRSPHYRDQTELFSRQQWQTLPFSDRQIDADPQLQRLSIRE
# Sequence of Cytochrome P450 2C9 (P11712 whole entry): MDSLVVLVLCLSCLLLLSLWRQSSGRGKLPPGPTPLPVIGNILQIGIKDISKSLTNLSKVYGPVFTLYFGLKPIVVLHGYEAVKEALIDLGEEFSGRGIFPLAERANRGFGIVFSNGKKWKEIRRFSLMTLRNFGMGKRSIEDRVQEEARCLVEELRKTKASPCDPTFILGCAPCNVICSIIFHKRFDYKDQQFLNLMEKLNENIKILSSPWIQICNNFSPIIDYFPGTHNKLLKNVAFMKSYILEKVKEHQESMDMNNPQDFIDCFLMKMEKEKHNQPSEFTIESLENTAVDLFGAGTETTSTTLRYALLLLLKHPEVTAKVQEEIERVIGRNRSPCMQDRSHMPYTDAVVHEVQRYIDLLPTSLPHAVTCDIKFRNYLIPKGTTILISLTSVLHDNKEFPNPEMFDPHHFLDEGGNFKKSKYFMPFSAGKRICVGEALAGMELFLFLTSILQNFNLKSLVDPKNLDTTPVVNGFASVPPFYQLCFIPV
# Sequence of Procathepsin L (P07711 whole entry): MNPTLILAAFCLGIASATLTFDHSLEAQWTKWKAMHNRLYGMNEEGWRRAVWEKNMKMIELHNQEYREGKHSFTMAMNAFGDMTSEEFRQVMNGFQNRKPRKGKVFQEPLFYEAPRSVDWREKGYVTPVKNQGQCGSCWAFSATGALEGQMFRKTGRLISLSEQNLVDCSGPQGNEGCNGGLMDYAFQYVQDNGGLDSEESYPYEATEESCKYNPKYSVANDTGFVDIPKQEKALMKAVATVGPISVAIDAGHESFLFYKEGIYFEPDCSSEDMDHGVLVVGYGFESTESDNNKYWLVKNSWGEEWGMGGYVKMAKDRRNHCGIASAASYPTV
# T1 sequence (P41145 whole entry): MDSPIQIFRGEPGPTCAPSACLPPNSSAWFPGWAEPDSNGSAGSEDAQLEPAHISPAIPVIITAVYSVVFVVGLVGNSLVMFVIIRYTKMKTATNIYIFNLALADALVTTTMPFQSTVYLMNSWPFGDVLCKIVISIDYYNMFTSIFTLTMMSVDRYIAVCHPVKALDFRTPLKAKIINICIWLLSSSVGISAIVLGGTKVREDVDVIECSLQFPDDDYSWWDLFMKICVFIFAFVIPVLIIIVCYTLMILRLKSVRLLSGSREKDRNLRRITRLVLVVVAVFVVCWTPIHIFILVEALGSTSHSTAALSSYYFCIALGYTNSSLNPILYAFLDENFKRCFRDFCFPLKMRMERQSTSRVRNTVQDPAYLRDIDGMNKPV
# Sequence of Cyclin-dependent kinase 5/CDK5 activator 1 (Q00535 whole entry): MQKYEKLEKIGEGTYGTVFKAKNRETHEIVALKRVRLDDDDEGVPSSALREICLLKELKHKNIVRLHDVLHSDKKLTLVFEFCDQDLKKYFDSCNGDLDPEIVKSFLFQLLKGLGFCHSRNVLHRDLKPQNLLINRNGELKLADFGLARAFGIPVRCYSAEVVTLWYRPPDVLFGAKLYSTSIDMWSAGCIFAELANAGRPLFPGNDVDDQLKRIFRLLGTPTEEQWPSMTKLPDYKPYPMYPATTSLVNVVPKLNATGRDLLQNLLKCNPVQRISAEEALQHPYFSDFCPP
# Sequence of Cyclin-dependent kinase 5/CDK5 activator 1 (Q15078 whole entry, further chain): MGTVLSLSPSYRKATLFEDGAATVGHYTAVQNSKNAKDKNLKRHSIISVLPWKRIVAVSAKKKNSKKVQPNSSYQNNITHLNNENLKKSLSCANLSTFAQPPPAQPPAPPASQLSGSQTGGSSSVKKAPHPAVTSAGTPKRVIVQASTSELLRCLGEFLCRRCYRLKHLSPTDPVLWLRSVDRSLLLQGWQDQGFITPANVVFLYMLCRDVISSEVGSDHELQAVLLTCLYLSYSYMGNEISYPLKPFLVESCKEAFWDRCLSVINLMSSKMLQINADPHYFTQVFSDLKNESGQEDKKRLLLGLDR
# Sequence of Neurotensin receptor type 1 (P30989 whole entry): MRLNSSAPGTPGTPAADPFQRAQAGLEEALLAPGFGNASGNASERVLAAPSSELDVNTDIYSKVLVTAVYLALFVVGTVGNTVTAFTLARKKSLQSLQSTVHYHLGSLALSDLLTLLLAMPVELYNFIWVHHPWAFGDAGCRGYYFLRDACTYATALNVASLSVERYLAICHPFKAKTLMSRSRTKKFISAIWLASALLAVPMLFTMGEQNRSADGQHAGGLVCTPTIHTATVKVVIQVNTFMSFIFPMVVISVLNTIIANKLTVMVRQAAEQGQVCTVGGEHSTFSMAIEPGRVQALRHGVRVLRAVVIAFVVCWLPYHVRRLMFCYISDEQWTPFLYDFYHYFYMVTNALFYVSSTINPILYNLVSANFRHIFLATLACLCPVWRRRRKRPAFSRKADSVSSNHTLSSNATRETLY
# Sequence of Beta-galactosidase (Q8VNN2 whole entry): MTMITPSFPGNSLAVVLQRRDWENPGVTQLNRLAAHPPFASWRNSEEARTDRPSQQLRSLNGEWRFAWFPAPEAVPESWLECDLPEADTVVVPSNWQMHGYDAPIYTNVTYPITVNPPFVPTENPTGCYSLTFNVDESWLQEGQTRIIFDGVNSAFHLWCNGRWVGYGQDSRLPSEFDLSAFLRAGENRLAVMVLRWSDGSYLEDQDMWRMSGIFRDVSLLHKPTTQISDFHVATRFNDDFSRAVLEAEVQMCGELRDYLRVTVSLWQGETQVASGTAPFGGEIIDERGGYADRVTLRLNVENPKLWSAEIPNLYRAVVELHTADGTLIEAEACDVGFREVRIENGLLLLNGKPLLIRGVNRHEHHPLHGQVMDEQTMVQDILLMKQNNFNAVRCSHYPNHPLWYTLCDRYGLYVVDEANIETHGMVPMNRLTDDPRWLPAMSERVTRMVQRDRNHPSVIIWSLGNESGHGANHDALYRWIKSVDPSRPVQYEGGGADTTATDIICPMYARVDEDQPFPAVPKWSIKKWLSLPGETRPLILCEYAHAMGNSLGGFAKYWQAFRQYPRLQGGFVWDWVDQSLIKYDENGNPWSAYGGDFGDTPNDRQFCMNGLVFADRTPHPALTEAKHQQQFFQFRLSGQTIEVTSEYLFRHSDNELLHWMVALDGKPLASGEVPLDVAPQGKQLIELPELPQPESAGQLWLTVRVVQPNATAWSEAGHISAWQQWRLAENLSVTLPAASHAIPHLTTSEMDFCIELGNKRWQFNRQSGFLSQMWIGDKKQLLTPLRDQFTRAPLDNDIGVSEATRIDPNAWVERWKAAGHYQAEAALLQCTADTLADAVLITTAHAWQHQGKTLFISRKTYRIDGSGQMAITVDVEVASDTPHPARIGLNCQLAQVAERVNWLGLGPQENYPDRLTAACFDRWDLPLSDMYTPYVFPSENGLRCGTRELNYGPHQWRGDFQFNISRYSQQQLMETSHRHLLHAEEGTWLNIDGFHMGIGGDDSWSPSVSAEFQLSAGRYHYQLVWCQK
compound,measurement,setting,value
Nc1nc(Nc2ccccc2)nc(NCCO)c1[N+](=O)[O-],AC50,[1],17.5 µM (active)
COc1ccc(C)c(-n2c(=O)n(Cc3ccccc3)c(=O)c3[nH]cnc32)c1,IC50,[2],6.84 µM (active)
same,pIC50,[3],< 4.49
same,EC50,Beta-galactosidase,9.23 µM (active)
O=C(Oc1ccc(Br)cc1C(=O)/C=C/c1ccccc1F)c1ccco1,AC50,[4],5.03 µM (active)
same,EC50,[5],15.9 µM (active)
Cc1nc2cc(-c3ccccc3)nn2c(C)c1CCC(=O)NCc1ccco1,EC50,[6],17.6 µM (active)
same,IC50,[7],> 80 µM (inactive)
same,EC50,[8],9.65 µM (active)
Cc1csc2nc(CCNS(=O)(=O)c3cccs3)cn12,EC50,[9],254 µM (active)
same,EC50,[10],3.07 µM (active)
same,EC50,[11],13.1 µM (active)
same,EC50,[12],2.18 µM (active)
same,EC50,[13],1.85 µM (active)
same,EC50,[14],45.9 µM (active)
same,EC50,H4,96.8 µM (active)
Cc1ccc(O)c(C(=O)c2cc(C#N)c(=O)n(-c3nccs3)c2)c1,CC50,[15],29.6 µM (active)
CCOCC(=O)Nc1nc2ccc(C)cc2s1,AC50,[16],24 µM (active)
same,IC50,[17],> 66 µM (inactive)
same,IC50,[18],> 66 µM (inactive)
same,IC50,cells,34.5 µM (active)
O=C(NCCc1ccc(O)c(O)c1)C1COc2ccccc2O1 (stereo not drawn),EC50,[9],28.5 µM (active)
same,IC50,Procathepsin L,> 59.6 µM (not active)
same,IC50,Aspartyl aminopeptidase,2.11 µM (active)
CCOC(=O)OCC1OC(C#Cc2ccc(C(C)(C)C)cc2)C=CC1OC(=O)OCC (stereo not drawn),AC50,Cytochrome P450 2C9,0.0025 µM (inconclusive)
CC(C)C[C@@H](CC(=O)N[C@H](CC(=O)N[C@@H]1CCNC[C@H]1C(=O)N[C@H](CC(=O)N[C@@H](CCC(=O)O)CC(=O)O)CC(C)C)C(C)C)NC(=O)[C@@H]1CCCC[C@H]1N,AC50,Cytochrome P450 2D6,39.8 µM (inconclusive)
same,AC50,Cytochrome P450 2C9,39.8 µM (inconclusive)
O=[N+]([O-])c1ccc(Sc2cc[n+]([O-])c3ccccc23)c([N+](=O)[O-])c1,CC50,[19],12.1 µM (active)
same,AC50,[20],5.92 µM (active)
same,IC50,[7],> 80 µM (inactive)
Cc1scc(C(=O)Nn2cnnc2)c1-c1ccccc1,IC50,Procathepsin L,> 59.6 µM (not active)
same,IC50,Aspartyl aminopeptidase,3.13 µM (active)
O=C(COC(=O)c1ccc([N+](=O)[O-])o1)NCCCc1ccccc1,AC50,HeLa,> 350 µM (inactive)
same,AC50,Caspase-6,35.2 µM (active)
COc1cc2ccccc2ccc1=NO,AC50,[1],34.7 µM (active)
O=C(COc1ccccc1)NCC(=O)N/N=C/c1ccc(O)cc1O,IC50,[21],69.4 µM (active)
same,EC50,[5],> 40 µM (inactive)
CO/N=C/c1cn(-c2ccc(Cl)cc2)nn1,AC50,[16],5.97 µM (active)
